Laboratory results: ChEMBL document CHEMBL1201862, “PubChem BioAssay data set” (2004)
The source made the active and inactive calls.

Columns and labels:
Cytochrome P450 1A2 = target: T1, Cytochrome P450 1A2 (Homo sapiens, UniProt P05177);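 further: PubChem cytochrome P450 panel assay, CYP1A2 panel member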
T1 sequence (P05177 whole entry): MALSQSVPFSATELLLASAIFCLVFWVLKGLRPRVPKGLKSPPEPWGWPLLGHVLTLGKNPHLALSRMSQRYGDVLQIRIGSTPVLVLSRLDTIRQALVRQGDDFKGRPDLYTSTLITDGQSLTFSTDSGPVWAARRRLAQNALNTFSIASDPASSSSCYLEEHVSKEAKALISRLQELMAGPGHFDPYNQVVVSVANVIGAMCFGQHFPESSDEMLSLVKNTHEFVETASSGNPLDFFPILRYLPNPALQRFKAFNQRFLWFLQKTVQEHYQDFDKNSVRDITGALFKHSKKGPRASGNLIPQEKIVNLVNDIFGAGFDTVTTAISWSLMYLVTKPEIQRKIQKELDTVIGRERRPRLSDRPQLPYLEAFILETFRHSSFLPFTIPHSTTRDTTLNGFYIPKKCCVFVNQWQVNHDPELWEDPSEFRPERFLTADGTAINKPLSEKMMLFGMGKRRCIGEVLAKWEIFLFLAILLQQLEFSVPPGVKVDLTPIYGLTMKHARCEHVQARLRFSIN

Cytochrome P450 2C19 = Cytochrome P450 2C19 (Homo sapiens, UniProt P33261); assay: Cytochrome panel assay with activity outcomes. Panel member name: p450-cyp2c19 Compounds with AC50 equal or less than 10 uM are considered active; type: functional
[1] = NIH-3T3 fibroblast cytotoxicity, dose response, cytotoxicity control, cell-based, fluorescence, Alamar Blue, secondary assay (AID 2327); type: functional;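 further: NIH-3T3 mouse fibroblasts cultured with fluconazole at 8 µg/mL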
[2] = fluconazole-exposed Candida albicans growth modulators – fluorescence, retest, confirmation (AID 2467); type: functional, cell-based
[3] = system: Streptococcus sp. 'group A'; assay: Streptococcus pyogenes SK(-)GAS viability under kanamycin – luminescence, BacTiterGlo, confirmation, counter-screen for streptokinase expression inhibitor project, dose response (AID 1900); type: functional, organism-based
Streptococcus = assay: GAS UMAA2166 growth inhibition – luminescence, BacTiterGlo, counter-screen for streptokinase expression inhibitor project, dose response (AID 1915); type: functional, organism-based;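 further: potency for reduction of bacterial viability or growth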
Streptokinase A = target: T2, Streptokinase A (Streptococcus pyogenes serotype M1, UniProt P10520); assay: viability-normalized secreted streptokinase activity reduction – plasminogen activation absorbance, OD405, dose response (AID 1914); type: functional, Streptococcus pyogenes M1 GAS;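 further: secreted streptokinase activity via plasminogen activation per viability signal from cell pellet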
T2 sequence (P10520 whole entry): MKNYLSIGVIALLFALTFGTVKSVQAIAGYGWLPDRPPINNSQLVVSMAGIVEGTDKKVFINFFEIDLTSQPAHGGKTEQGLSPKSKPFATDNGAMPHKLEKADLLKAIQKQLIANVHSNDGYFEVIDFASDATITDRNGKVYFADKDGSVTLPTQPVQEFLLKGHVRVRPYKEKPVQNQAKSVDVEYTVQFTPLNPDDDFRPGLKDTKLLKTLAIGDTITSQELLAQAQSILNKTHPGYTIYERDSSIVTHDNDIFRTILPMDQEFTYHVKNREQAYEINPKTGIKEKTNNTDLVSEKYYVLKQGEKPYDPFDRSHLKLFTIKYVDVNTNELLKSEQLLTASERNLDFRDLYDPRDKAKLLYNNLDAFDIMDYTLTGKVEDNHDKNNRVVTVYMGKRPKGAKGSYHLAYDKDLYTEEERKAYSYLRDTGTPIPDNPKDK

INS1 = assay: INS-1E survival protection against cytokine death – cell-based, luminescence, retest, dose response (AID 449756); type: functional; details: Rattus norvegicus;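 further: cell death triggered by IL-1 beta plus TNF-alpha plus IFN-gamma mixture; protective hits raise ATP signal compared with cytokine alone wells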
Cytochrome P450 2C9 = Cytochrome P450 2C9 (Homo sapiens, UniProt P11712)
Cytochrome P450 2D6 = Cytochrome P450 2D6 (Homo sapiens, UniProt P10635);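 further: CYP2D6 member of a cytochrome P450 panel assay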
Cytochrome P450 3A4 = Cytochrome P450 3A4 (Homo sapiens, UniProt P08684);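 further: CYP3A4 tested as one member of a cytochrome P450 panel screen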
[4] = Trypanosoma cruzi growth suppression in host cells – NIH3T3 host cells, beta-gal luminescence, confirmation (AID 2044); type: functional, cell-based;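 further: intracellular parasites grown in NIH/3T3 mouse fibroblasts as host cells; luminescent beta-galactosidase reporter signal from transgenic T. cruzi replicating inside host cells; inhibitors lower the luminescence signal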
[5] = NIH3T3 cell viability loss – ATP luminescence, mouse fibroblasts, counter-screen, dose response (AID 2010); type: functional, cell-based;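 further: cells exposed to compound for about 90 hours before reading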

Chain of Cytochrome P450 2C9 (P11712 whole entry): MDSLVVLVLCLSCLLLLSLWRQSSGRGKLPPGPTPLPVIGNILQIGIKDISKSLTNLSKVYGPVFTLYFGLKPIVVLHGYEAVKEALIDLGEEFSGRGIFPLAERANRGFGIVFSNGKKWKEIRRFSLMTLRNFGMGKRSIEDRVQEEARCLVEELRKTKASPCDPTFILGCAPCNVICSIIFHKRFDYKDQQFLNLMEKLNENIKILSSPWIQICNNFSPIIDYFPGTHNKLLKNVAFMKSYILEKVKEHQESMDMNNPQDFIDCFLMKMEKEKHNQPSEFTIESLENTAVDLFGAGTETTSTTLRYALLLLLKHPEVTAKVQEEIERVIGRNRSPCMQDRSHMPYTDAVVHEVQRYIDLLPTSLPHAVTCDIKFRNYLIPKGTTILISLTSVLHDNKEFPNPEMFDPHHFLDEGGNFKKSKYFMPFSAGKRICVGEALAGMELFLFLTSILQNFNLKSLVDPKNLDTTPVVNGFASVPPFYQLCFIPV
Chain of Cytochrome P450 3A4 (P08684 whole entry): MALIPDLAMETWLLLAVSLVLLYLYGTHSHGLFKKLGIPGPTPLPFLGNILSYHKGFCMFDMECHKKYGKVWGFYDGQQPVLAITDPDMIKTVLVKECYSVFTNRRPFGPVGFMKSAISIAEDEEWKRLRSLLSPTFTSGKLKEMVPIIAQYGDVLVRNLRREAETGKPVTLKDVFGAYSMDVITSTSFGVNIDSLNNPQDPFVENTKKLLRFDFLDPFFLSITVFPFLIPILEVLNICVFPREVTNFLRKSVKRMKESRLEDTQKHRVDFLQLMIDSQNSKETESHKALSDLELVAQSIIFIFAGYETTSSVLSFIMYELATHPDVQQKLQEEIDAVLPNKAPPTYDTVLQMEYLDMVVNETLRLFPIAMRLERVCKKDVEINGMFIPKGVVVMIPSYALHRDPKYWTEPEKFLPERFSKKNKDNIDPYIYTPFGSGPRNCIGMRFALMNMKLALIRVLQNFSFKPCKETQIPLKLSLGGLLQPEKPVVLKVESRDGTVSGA
Chain of Cytochrome P450 2D6 (P10635 whole entry): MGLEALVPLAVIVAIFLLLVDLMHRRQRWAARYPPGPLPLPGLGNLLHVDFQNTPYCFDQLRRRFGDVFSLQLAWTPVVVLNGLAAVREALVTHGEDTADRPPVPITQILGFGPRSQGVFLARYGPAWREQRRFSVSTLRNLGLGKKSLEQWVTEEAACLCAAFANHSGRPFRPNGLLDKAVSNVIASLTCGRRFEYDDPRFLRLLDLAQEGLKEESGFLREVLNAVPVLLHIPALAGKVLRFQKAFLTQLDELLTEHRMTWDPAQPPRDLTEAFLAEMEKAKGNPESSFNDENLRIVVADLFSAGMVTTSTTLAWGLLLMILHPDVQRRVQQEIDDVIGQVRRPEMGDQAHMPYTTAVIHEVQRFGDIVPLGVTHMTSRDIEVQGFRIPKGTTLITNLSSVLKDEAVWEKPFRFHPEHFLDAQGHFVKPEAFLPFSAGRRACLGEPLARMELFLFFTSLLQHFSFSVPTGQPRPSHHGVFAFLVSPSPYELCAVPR
Chain of Cytochrome P450 2C19 (P33261 whole entry): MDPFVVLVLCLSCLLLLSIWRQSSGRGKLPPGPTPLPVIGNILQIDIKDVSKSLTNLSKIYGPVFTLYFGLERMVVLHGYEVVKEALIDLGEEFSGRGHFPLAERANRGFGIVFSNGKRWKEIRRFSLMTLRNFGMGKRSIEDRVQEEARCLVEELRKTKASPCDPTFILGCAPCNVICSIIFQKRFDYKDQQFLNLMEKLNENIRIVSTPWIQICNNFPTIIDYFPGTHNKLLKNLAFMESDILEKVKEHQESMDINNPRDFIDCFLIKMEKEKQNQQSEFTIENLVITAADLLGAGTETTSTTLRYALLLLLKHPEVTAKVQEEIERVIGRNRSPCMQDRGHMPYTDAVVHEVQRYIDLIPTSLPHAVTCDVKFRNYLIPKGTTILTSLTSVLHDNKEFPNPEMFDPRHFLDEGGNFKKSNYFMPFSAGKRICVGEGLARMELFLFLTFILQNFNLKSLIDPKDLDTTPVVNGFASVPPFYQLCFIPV

## CC(C)(C)c1ccc(OCC(=O)NNC(=O)Cc2cccs2)cc1
Cytochrome P450 1A2
  AC50: 28.2 µM (inconclusive)
Cytochrome P450 2C19; read-out: AC50
  AC50: 20 µM (inconclusive)

## COc1ccc(C2N=C(Nc3ccc(C)cc3)Nc3nc(C)cc(=O)n32)cc1 (stereo unspecified)
[1]
  EC50: > 160 µM (inactive)
[2]
  EC50: > 38 µM (not active)

## CC1(C)Cc2c(cnn2-c2ccccc2)C(NC(=O)CCCN2CCCC2=O)C1 (stereo unspecified)
[3]
  EC50: > 150 µM (not active)
Streptococcus
  EC50: > 150 µM (not active)
Streptokinase A
  EC50: > 150 µM (not active)

## O=C(Nc1cccc(F)c1)N1CCCCCC1
[3]
  EC50: > 150 µM (not active)
Streptococcus
  EC50: > 150 µM (not active)
Streptokinase A
  EC50: > 150 µM (not active)

## CCN(CC)S(=O)(=O)c1cccc(NC(=O)c2cc(-c3cccs3)nn2-c2ccccc2)c1
INS1
  AC50: 10.3 µM (active)

## COc1ccc(OCCNS(=O)(=O)c2ccc3oc4ccccc4c3c2)cc1
Cytochrome P450 2C9
  AC50: 2.51 µM (inconclusive)

## Cc1ccc(NS(=O)(=O)c2ccc(C3CCCCC3)cc2)cc1
[3]
  EC50: 4.32 µM (active)
Streptococcus
  EC50: 7.04 µM (active)
Streptokinase A
  EC50: 4.17 µM (active)

## COc1cccc(-c2ccc3ncnc(Nc4ccccc4)c3c2)c1
Cytochrome P450 2C9
  AC50: 0.631 µM (inconclusive)

## O=C(Oc1c(Cl)cc(Cl)c2cccnc12)N1CCOCC1
[1]
  EC50: > 150 µM (inactive)
[2]
  EC50: > 38 µM (not active)

## Cc1c(C(=O)NCCC2=CCCCC2)cccc1[N+](=O)[O-]
Cytochrome P450 2D6
  AC50: 15.8 µM (inconclusive)
Cytochrome P450 1A2
  AC50: 15.8 µM (inconclusive)
Cytochrome P450 3A4
  AC50: 14.1 µM (inconclusive)

## CC(=O)NCCNc1nc(-c2cccc(NS(C)(=O)=O)c2)nc2ccccc12
Cytochrome P450 2D6
  AC50: 10 µM (inconclusive)
Cytochrome P450 2C19; read-out: AC50
  AC50: 39.8 µM (inconclusive)

## COc1ccc(-c2nc(-c3ccncc3)no2)cc1OC
[1]
  EC50: > 160 µM (inactive)
[2]
  EC50: 5.21 µM (active)

## COCCn1c(=O)c(-c2ccc(Cl)cc2)nc2cnc(OC)nc21
Cytochrome P450 2D6
  AC50: 25.1 µM (inconclusive)
Cytochrome P450 2C9
  AC50: 39.8 µM (inconclusive)

## Cc1ccc(NC(=O)c2cccc(OCc3c(C)noc3C)c2)cc1S(=O)(=O)Nc1ccccc1Cl
Streptococcus
  EC50: 57.1 µM (active)
Streptokinase A
  EC50: > 150 µM (not active)

## CN(Cc1ccco1)c1ncnc2ccc(-c3cccc(NS(C)(=O)=O)c3)cc12
Cytochrome P450 2C9
  AC50: 0.794 µM (inconclusive)

## O=C(O)CSCC(=O)N(Cc1ccccc1)c1nc(-c2ccccc2)c(-c2ccccc2)s1
[3]
  EC50: 0.996 µM (active)
Streptococcus
  EC50: 8.03 µM (active)
Streptokinase A
  EC50: 2.81 µM (active)

## Cc1cccc(CSc2nc(N)c(C#N)c(-c3cccs3)c2C#N)c1
[3]
  EC50: 5.04 µM (active)
[4]
  EC50: 2.31 µM (active)
Streptococcus
  EC50: > 150 µM (not active)
Streptokinase A
  EC50: 4.93 µM (active)
[5]
  EC50: > 60 µM (inconclusive)

## CCOC(=O)c1sc(NC(C)=O)nc1-c1ccccc1
Cytochrome P450 2C19; read-out: AC50
  AC50: 10 µM (inconclusive)

## CC(C)c1ccc(COc2ccc(C(=O)N3CCOCC3)cc2)cc1
INS1
  AC50: 9.42 µM (active)

## FC(F)(F)Oc1ccc(N=C(S)Nc2ccc(OC(F)(F)F)cc2)cc1
[3]
  EC50: 15.8 µM (active)
Streptococcus
  EC50: 22 µM (active)
Streptokinase A
  EC50: > 150 µM (not active)

## CO[C@@H](C)[C@](O)(C(=O)OCC1=CCN2CC[C@@H](O)[C@H]12)C(C)C
Cytochrome P450 2D6
  AC50: 3.98 µM (inconclusive)
Cytochrome P450 2C19
  AC50: inconclusive

## COc1ccc2[nH]cc(CCNc3ncnc4ccc(-c5c(C)noc5C)cc34)c2c1
Cytochrome P450 2C9
  AC50: 0.501 µM (inconclusive)

## Cn1ncc2c(Nc3ccc(Cl)c(Cl)c3)ncnc21
[3]
  EC50: 7.9 µM (active)
Streptococcus
  EC50: 16 µM (active)
Streptokinase A
  EC50: > 150 µM (not active)

## CCN(CC)c1nc(N)c2c(N)nc3c(c2c1C#N)CC(c1ccccc1)O3 (stereo unspecified)
[1]
  EC50: > 160 µM (inactive)
[2]
  EC50: > 38 µM (not active)

## Cc1ccc(-c2csc(NNC(=O)c3ccccc3)n2)cc1
[3]
  EC50: 4.37 µM (active)
Streptococcus
  EC50: > 150 µM (not active)
Streptokinase A
  EC50: > 150 µM (not active)

## CN1CCN(c2ncc3nc(-c4ccccc4)c(=O)n(CCC#N)c3n2)CC1
Cytochrome P450 2D6
  AC50: 25.1 µM (inconclusive)
Cytochrome P450 1A2
  AC50: 20 µM (inconclusive)

## CS(=O)(=O)N1CCC2(CCN(Cc3ccncc3)CC2)CC1
Cytochrome P450 2D6
  AC50: 25.1 µM (inconclusive)
Cytochrome P450 2C9
  AC50: 31.6 µM (inconclusive)
Cytochrome P450 3A4
  AC50: 12.6 µM (inconclusive)

## Cc1cnc(CNc2ncncc2-c2ccccc2Cl)cn1
Cytochrome P450 2D6
  AC50: 25.1 µM (inconclusive)
Cytochrome P450 3A4
  AC50: 0.251 µM (inconclusive)

## Cc1ccc(C(=O)Cn2cccn2)cc1
[1]
  EC50: > 160 µM (inconclusive)
[2]
  EC50: > 38 µM (not active)

## Cc1ccc(-n2c(-c3ccccc3)cc(=O)nc2C)cc1
Cytochrome P450 2C9
  AC50: 7.08 µM (inconclusive)

## COc1cnc(-c2ccccn2)nc1Oc1c(C)cccc1C
[3]
  EC50: 6.39 µM (active)
Streptococcus
  EC50: > 150 µM (not active)
Streptokinase A
  EC50: > 150 µM (not active)

## COc1ccc(NC(=O)COC(=O)Cn2c(C)nc3ccccc32)cc1OC
Cytochrome P450 2C19; read-out: AC50
  AC50: 3.55 µM (inconclusive)

## COc1ccc(NC(=O)N2CCCC3(CCN(C(=O)c4ccc(OC)cc4)CC3)C2)cc1
Cytochrome P450 2C9
  AC50: 39.8 µM (inconclusive)

## COC(=O)[C@@]1(Cc2ccc(OC)cc2)[C@H]2c3cc(C(=O)N4CCCC4)n(Cc4nc5ccccc5[nH]4)c3C[C@H]2CN1C(=O)c1ccccc1
Cytochrome P450 2C19; read-out: AC50
  AC50: 20 µM (inconclusive)

## COc1ccc(NS(=O)(=O)c2cccc(NC(=O)CCC(=O)c3ccc(Cl)cc3)c2)cc1
[3]
  EC50: 11.2 µM (active)
Streptococcus
  EC50: 25.3 µM (active)
Streptokinase A
  EC50: > 150 µM (not active)

## CN1c2ccccc2C(O)=C(C(=O)Nc2ccccc2)S1(=O)=O
Cytochrome P450 2C19
  AC50: inconclusive
Cytochrome P450 3A4
  AC50: 39.8 µM (inconclusive)

## Cn1c(CCN2CCCCC2)nc2cc([N+](=O)[O-])ccc21
Cytochrome P450 2D6
  AC50: 14.1 µM (inconclusive)
Cytochrome P450 2C19
  AC50: inconclusive

## CCc1ccc(OCC(=O)NC(=S)Nc2ccc(F)cc2)c(Br)c1
Cytochrome P450 1A2
  AC50: 3.16 µM (inconclusive)
Cytochrome P450 2C9
  AC50: 3.16 µM (inconclusive)

## CCCNC(=O)Cn1cnc2sc(C(=O)Nc3ccc4c(c3)OCO4)c(C)c2c1=O
Cytochrome P450 2D6
  AC50: 5.01 µM (inconclusive)
Cytochrome P450 2C19; read-out: AC50
  AC50: 0.00562 µM (inconclusive)
Cytochrome P450 3A4
  AC50: 1.41 µM (inconclusive)

## N=c1c2ccccc2nc2n1CCCCCCCCCCC2
INS1
  AC50: 9.52 µM (active)

## COCc1nnc(NC(=O)CCN2C(=O)c3ccccc3C2=O)s1
Cytochrome P450 2D6
  AC50: 17.8 µM (inconclusive)
Cytochrome P450 2C9
  AC50: 31.6 µM (inconclusive)

## CCOC(=O)CSc1n[nH]c(-c2cccnc2)n1
Cytochrome P450 2C19; read-out: AC50
  AC50: 11.2 µM (inconclusive)
Cytochrome P450 3A4
  AC50: 15.8 µM (inconclusive)

## Oc1c(Br)cc(Br)cc1Oc1ccc(Br)cc1Br
[3]
  EC50: 1.33 µM (active)
Streptococcus
  EC50: 2.73 µM (active)
[1]
  EC50: > 150 µM (inactive)
[2]
  EC50: > 38 µM (not active)
Streptokinase A
  EC50: 0.753 µM (active)

## O=c1ccc2[nH]cc(C3=CCNCC3)c2[nH]1
Cytochrome P450 2C9
  AC50: 7.94 µM (inconclusive)

## C/C(=N\NC(=O)c1cccc(Br)c1)c1ccc(Br)cc1
Cytochrome P450 2C19; read-out: AC50
  AC50: 0.224 µM (inconclusive)
Cytochrome P450 3A4
  AC50: 28.2 µM (inconclusive)

## C/C(=N\O)c1cc(Cl)cc(Cl)c1O
[1]
  EC50: > 160 µM (inactive)
[2]
  EC50: 4.41 µM (active)

## O=C(CNC(=O)c1ccc2c(c1)OCO2)N/N=C/c1cc(Br)ccc1O
[3]
  EC50: 10.1 µM (active)
Streptococcus
  EC50: 25.2 µM (inconclusive)
INS1
  AC50: 3.36 µM (active)
Streptokinase A
  EC50: > 150 µM (not active)

## Cc1ccc(-c2nnc(Nc3ccccc3)c3ccccc23)cc1S(=O)(=O)NCC1CCCO1 (stereo unspecified)
[1]
  EC50: 25 µM (active)
[2]
  EC50: 5.07 µM (active)

## O=P([O-])([O-])C(Cl)(Cl)P(=O)(O)O.[Na+].[Na+] [CLODRONATE DISODIUM]
Cytochrome P450 2C19
  AC50: inconclusive

## CN1CCC(=C2c3ccccc3Sc3ccccc32)CC1 [PIMETHIXENE]
Cytochrome P450 2C19; read-out: AC50
  AC50: 15.8 µM (inconclusive)

## N#CC(C#N)=Cc1cc(O)c(O)c(O)c1 [TYRPHOSTIN 25]
Cytochrome P450 2C9
  AC50: 15.8 µM (inconclusive)
